According to US4556737A, “Sulfonium compounds, processes for preparing the compounds and pharmacological composiitons containing the same” (Taiho Pharmaceutical Company Limited, priority 1983, dated 1985):

Legend:
Acute toxicity test = settings: mouse, in vivo, ip; male ddy mice, intraperitoneal, solution in physiological saline, up-down method
Protocol: Male ddy mice weighing about 20 g were used. A solution of the compound in physiological saline was injected intraperitoneally. The dose lethal to 50% of mice was determined by the up-down method.

[1] = tested on: passive cutaneous anaphylaxis (PCA); assay: Effect on passive cutaneous anaphylaxis (PCA); assay type: in vivo, male Wister rats; settings: 1 hour prior to antigen challenge, rat
Protocol: (1) Effect on passive cutaneous anaphylaxis (PCA)
A serum containing the homocytotropic antibody was intracutaneously injected at four points of the shaven back of the male Wister rats weighing 180 to 200 g. Fourty-eight hours after the injection, a physiological saline containing 2.0 mg of DNP-As and 2.5 mg of Evans Blue to induce response, and the rats were dehematized to death in 30 minutes. […] The present compounds were administered to the rats 1 hour prior to the antigen challenge.

SMILES	LD50 (Acute toxicity test) [mg/kg]	inhibition in vivo at 100 mg/kg [1] [%]	other results
C[S+](C)CCC(=O)Nc1ccc(OCC(O)COC2CCCCC2)cc1 (centres unmarked) [Compound 17]	93.6	47	–
C[S+](C)CCOc1ccccc1OCC(O)CO.Cc1ccc(S(=O)(=O)[O-])cc1 (centres unmarked) [Compound 40, 2-{2-(2,3-dihydroxypropoxy)phenoxy}ethyldimethylsulfonium p-toluenesulfonate]	283	–	inhibition in vivo at 200 mg/kg [1]: 53.2%
C[S+](C)CCOc1ccc(OCC(O)COCC2CCCO2)cc1 (centres unmarked) [Compound 49]	221	–	inhibition in vivo at 20 mg/kg [1]: 42.5%
CCOCC(COc1ccc(OCC[S+](C)C)cc1)OCC (centres unmarked) [Compound 52]	132	53.3	–
C[S+](C)CCOc1ccc(OCC(O)CO)cc1 (centres unmarked) [Compound 44]	352	–	inhibition in vivo at 200 mg/kg [1]: 57%
C[S+](C)CCC(=O)Nc1ccc(OCC(O)COc2ccccc2)cc1 (centres unmarked) [Compound 18]	112	34	–
C[S+](C)CCOc1cccc(OCC(O)CO)c1 (centres unmarked) [Compound 42]	231	–	inhibition in vivo at 200 mg/kg [1]: 58.4%
CC(=O)OCC(COc1ccc(OCC[S+](C)C)cc1)OC(C)=O (centres unmarked) [Compound 55]	291	–	inhibition in vivo at 50 mg/kg [1]: 55.2%
CCOCC(O)COc1ccc(NC(=O)CC[S+](C)C)cc1 (centres unmarked) [Compound 8]	254	–	inhibition in vivo at 20 mg/kg [1]: 57%
CC(=O)OCC(COc1ccc(NC(=O)CC[S+](C)C)cc1)OC(C)=O (centres unmarked) [Compound 32]	366	–	inhibition in vivo at 10 mg/kg [1]: 47%
C[S+](C)CCOc1ccc(OCC(O)COC(N)=O)cc1 (centres unmarked) [Compound 54]	327	–	inhibition in vivo at 20 mg/kg [1]: 51.8%
C[S+](C)CCOc1ccc(OCC(COC(=O)c2ccccc2)OC(=O)c2ccccc2)cc1 (centres unmarked) [Compound 56]	85	44.7	–
CCCOCC(COc1ccc(NC(=O)CC[S+](C)C)cc1)OCCC (centres unmarked) [Compound 29]	75.2	–	inhibition in vivo at 50 mg/kg [1]: 46.2%
CCOCC(COc1ccc(NC(=O)CC[S+](C)C)cc1)OC(C)=O (centres unmarked) [Compound 25]	233	63.6	–
COCC(COc1ccc(NC(=O)CC[S+](C)C)cc1)OC (centres unmarked) [Compound 19]	254	–	inhibition in vivo at 10 mg/kg [1]: 51.6%
C[S+](C)CCC(=O)Nc1ccc(OCC(O)CO)cc1.Cc1ccc(S(=O)(=O)[O-])cc1 (centres unmarked) [Compound 4, 2-{4-(2,3-dihydroxypropoxy)phenylcarbamoyl}ethyldimethylsulfonium p-toluenesulfonate]	1040	–	inhibition in vivo at 50 mg/kg [1]: 48.8%
CCCOCC(O)COc1ccc(OCC[S+](C)C)cc1 (centres unmarked) [Compound 47]	293	–	inhibition in vivo at 50 mg/kg [1]: 39.2%
CCCOCC(O)COc1ccc(NC(=O)CC[S+](C)C)cc1 (centres unmarked) [Compound 10]	171	47	–
C[S+](C)CCOc1ccc(OCC(O)COc2ccccc2)cc1.Cc1ccc(S(=O)(=O)[O-])cc1 (centres unmarked) [Compound 51, 2-{4-(2-hydroxy-3-phenoxypropoxy)phenoxy}ethyldimethylsulfonium p-toluenesulfonate]	150	56.7	–
CCOCC(O)COc1ccc(OCC[S+](C)C)cc1 (centres unmarked) [Compound 46]	–	64.8	–
COCC(O)COc1ccc(OCC[S+](C)C)cc1.Cc1ccc(S(=O)(=O)[O-])cc1 (centres unmarked) [Compound 45, 2-{4-(2-hydroxy-3-methoxypropoxy)phenoxy}ethyldimethylsulfonium p-toluenesulfonate]	302	–	inhibition in vivo at 200 mg/kg [1]: 59%
CCOCC(COc1ccc(NC(=O)CC[S+](C)C)cc1)OCC (centres unmarked) [Compound 20]	179	–	inhibition in vivo at 50 mg/kg [1]: 35.1%
COCC(O)COc1ccc(NC(=O)CC[S+](C)C)cc1.Cc1ccc(S(=O)(=O)[O-])cc1 (centres unmarked) [Compound 7, 2-{4-(2-hydroxy-3-methoxypropoxy)phenylcarbamoyl}ethyldimethylsulfonium p-toluenesulfonate]	359	57	–
CCOCCOCC(O)COc1ccc(OCC[S+](C)C)cc1 (centres unmarked) [Compound 48]	302	–	inhibition in vivo at 20 mg/kg [1]: 48%
